Results as given in the CheMixHub viscosity set.
± gives the uncertainty stated by the source.

Test: xn = mol fraction of the nth substance listed

Structure (SMILES): O=S1(=O)CCCC1 + O
- viscosity (293.15 K, 101 kPa, x1 = 0.02074): 1.163 ± 0.011 mPa·s
- viscosity (293.15 K, 101 kPa, x1 = 0.04649): 1.387 ± 0.015 mPa·s
- viscosity (293.15 K, 101 kPa, x1 = 0.07703): 1.634 ± 0.021 mPa·s
- viscosity (293.15 K, 101 kPa, x1 = 0.1147): 1.969 ± 0.029 mPa·s
- viscosity (293.15 K, 101 kPa, x1 = 0.1615): 2.405 ± 0.041 mPa·s
- viscosity (293.15 K, 101 kPa, x1 = 0.2247): 3.044 ± 0.057 mPa·s
- viscosity (293.15 K, 101 kPa, x1 = 0.3102): 3.813 ± 0.079 mPa·s
- viscosity (293.15 K, 101 kPa, x1 = 0.4328): 4.899 ± 0.11 mPa·s
- viscosity (293.15 K, 101 kPa, x1 = 0.6323): 6.59 ± 0.16 mPa·s
- viscosity (293.15 K, 101 kPa, x1 = 0.7807): 8.243 ± 0.2 mPa·s
- viscosity (298 K, 100 kPa, x1 = 0.0215): 1 ± 0.1 mPa·s
- viscosity (298 K, 100 kPa, x1 = 0.035): 1.11 ± 0.11 mPa·s
- viscosity (298 K, 100 kPa, x1 = 0.0679): 1.32 ± 0.13 mPa·s
- viscosity (298 K, 100 kPa, x1 = 0.0888): 1.51 ± 0.15 mPa·s
- viscosity (298 K, 100 kPa, x1 = 0.121): 1.74 ± 0.18 mPa·s
- viscosity (298 K, 100 kPa, x1 = 0.221): 2.52 ± 0.26 mPa·s
- viscosity (298 K, 100 kPa, x1 = 0.569): 5.19 ± 0.53 mPa·s
- viscosity (298.15 K, 101 kPa, x1 = 0.02074): 1.038 ± 0.01 mPa·s
- viscosity (298.15 K, 101 kPa, x1 = 0.02077): 1.01 ± 0.3 mPa·s
- viscosity (298.15 K, 101 kPa, x1 = 0.04267): 1.17 ± 0.35 mPa·s
- viscosity (298.15 K, 101 kPa, x1 = 0.04649): 1.221 ± 0.014 mPa·s
- viscosity (298.15 K, 101 kPa, x1 = 0.07103): 1.59 ± 0.48 mPa·s
- viscosity (298.15 K, 101 kPa, x1 = 0.07703): 1.458 ± 0.019 mPa·s
- viscosity (298.15 K, 101 kPa, x1 = 0.09929): 1.64 ± 0.49 mPa·s
- viscosity (298.15 K, 101 kPa, x1 = 0.1147): 1.735 ± 0.026 mPa·s
- viscosity (298.15 K, 101 kPa, x1 = 0.1615): 2.129 ± 0.036 mPa·s
- viscosity (298.15 K, 101 kPa, x1 = 0.2247): 2.656 ± 0.05 mPa·s
- viscosity (298.15 K, 101 kPa, x1 = 0.25): 2.738 ± 0.038 mPa·s
- viscosity (298.15 K, 101 kPa, x1 = 0.3102): 3.347 ± 0.069 mPa·s
- viscosity (298.15 K, 101 kPa, x1 = 0.4328): 4.263 ± 0.096 mPa·s
- viscosity (298.15 K, 101 kPa, x1 = 0.5): 4.583 ± 0.067 mPa·s
- viscosity (298.15 K, 101 kPa, x1 = 0.6323): 5.775 ± 0.14 mPa·s
- viscosity (298.15 K, 101 kPa, x1 = 0.75): 6.772 ± 0.086 mPa·s
- viscosity (298.15 K, 101 kPa, x1 = 0.7807): 7.049 ± 0.18 mPa·s
- viscosity (298.15 K, 101 kPa, x1 = 0.85): 7.49 ± 0.089 mPa·s
- viscosity (303.15 K, 101 kPa, x1 = 0.0147): 0.8884 ± 0.023 mPa·s
- viscosity (303.15 K, 101 kPa, x1 = 0.02074): 0.927 ± 0.009 mPa·s
- viscosity (303.15 K, 101 kPa, x1 = 0.02077): 0.91 ± 0.27 mPa·s
- viscosity (303.15 K, 101 kPa, x1 = 0.0208): 0.9245 ± 0.024 mPa·s
- viscosity (303.15 K, 101 kPa, x1 = 0.04267): 1.04 ± 0.31 mPa·s
- viscosity (303.15 K, 101 kPa, x1 = 0.04649): 1.093 ± 0.012 mPa·s
- viscosity (303.15 K, 101 kPa, x1 = 0.0701): 1.255 ± 0.033 mPa·s
- viscosity (303.15 K, 101 kPa, x1 = 0.07103): 1.34 ± 0.4 mPa·s
- viscosity (303.15 K, 101 kPa, x1 = 0.0744): 1.273 ± 0.033 mPa·s
- viscosity (303.15 K, 101 kPa, x1 = 0.0958): 1.429 ± 0.037 mPa·s
- viscosity (303.15 K, 101 kPa, x1 = 0.09929): 1.44 ± 0.43 mPa·s
- viscosity (303.15 K, 101 kPa, x1 = 0.1435): 1.761 ± 0.046 mPa·s
- viscosity (303.15 K, 101 kPa, x1 = 0.1586): 1.852 ± 0.048 mPa·s
- viscosity (303.15 K, 101 kPa, x1 = 0.1924): 2.101 ± 0.055 mPa·s
- viscosity (303.15 K, 101 kPa, x1 = 0.25): 2.287 ± 0.03 mPa·s
- viscosity (303.15 K, 101 kPa, x1 = 0.3022): 2.856 ± 0.074 mPa·s
- viscosity (303.15 K, 101 kPa, x1 = 0.4496): 3.865 ± 0.1 mPa·s
- viscosity (303.15 K, 101 kPa, x1 = 0.5): 3.797 ± 0.05 mPa·s
- viscosity (303.15 K, 101 kPa, x1 = 0.6077): 4.963 ± 0.13 mPa·s
- viscosity (303.15 K, 101 kPa, x1 = 0.6106): 5.004 ± 0.13 mPa·s
- viscosity (303.15 K, 101 kPa, x1 = 0.749): 6.085 ± 0.16 mPa·s
- viscosity (303.15 K, 101 kPa, x1 = 0.75): 5.994 ± 0.077 mPa·s
- viscosity (303.15 K, 101 kPa, x1 = 0.7813): 6.555 ± 0.17 mPa·s
- viscosity (303.15 K, 101 kPa, x1 = 0.85): 7.236 ± 0.092 mPa·s
- viscosity (313.15 K, 101 kPa, x1 = 0.0147): 0.7245 ± 0.019 mPa·s
- viscosity (313.15 K, 101 kPa, x1 = 0.02077): 0.74 ± 0.22 mPa·s
- viscosity (313.15 K, 101 kPa, x1 = 0.0208): 0.753 ± 0.02 mPa·s
- viscosity (313.15 K, 101 kPa, x1 = 0.0701): 1.014 ± 0.026 mPa·s
- viscosity (313.15 K, 101 kPa, x1 = 0.07103): 1.01 ± 0.3 mPa·s
- viscosity (313.15 K, 101 kPa, x1 = 0.0744): 1.029 ± 0.027 mPa·s
- viscosity (313.15 K, 101 kPa, x1 = 0.0958): 1.152 ± 0.03 mPa·s
- viscosity (313.15 K, 101 kPa, x1 = 0.09929): 1.15 ± 0.35 mPa·s
- viscosity (313.15 K, 101 kPa, x1 = 0.1435): 1.414 ± 0.037 mPa·s
- viscosity (313.15 K, 101 kPa, x1 = 0.1586): 1.484 ± 0.039 mPa·s
- viscosity (313.15 K, 101 kPa, x1 = 0.1924): 1.681 ± 0.044 mPa·s
- viscosity (313.15 K, 101 kPa, x1 = 0.25): 1.928 ± 0.025 mPa·s
- viscosity (313.15 K, 101 kPa, x1 = 0.29): 2.219 ± 0.058 mPa·s
- viscosity (313.15 K, 101 kPa, x1 = 0.3022): 2.267 ± 0.059 mPa·s
- viscosity (313.15 K, 101 kPa, x1 = 0.4496): 3.059 ± 0.08 mPa·s
- viscosity (313.15 K, 101 kPa, x1 = 0.5): 3.212 ± 0.041 mPa·s
- viscosity (313.15 K, 101 kPa, x1 = 0.6077): 3.923 ± 0.1 mPa·s
- viscosity (313.15 K, 101 kPa, x1 = 0.6106): 3.962 ± 0.11 mPa·s
- viscosity (313.15 K, 101 kPa, x1 = 0.749): 4.807 ± 0.12 mPa·s
- viscosity (313.15 K, 101 kPa, x1 = 0.75): 4.743 ± 0.064 mPa·s
- viscosity (313.15 K, 101 kPa, x1 = 0.7813): 5.182 ± 0.14 mPa·s
- viscosity (313.15 K, 101 kPa, x1 = 0.85): 5.24 ± 0.072 mPa·s
- viscosity (323.15 K, 101 kPa, x1 = 0.0147): 0.6051 ± 0.016 mPa·s
- viscosity (323.15 K, 101 kPa, x1 = 0.02077): 0.63 ± 0.19 mPa·s
- viscosity (323.15 K, 101 kPa, x1 = 0.0208): 0.629 ± 0.017 mPa·s
- viscosity (323.15 K, 101 kPa, x1 = 0.04267): 0.7 ± 0.21 mPa·s
- viscosity (323.15 K, 101 kPa, x1 = 0.0701): 0.841 ± 0.022 mPa·s
- viscosity (323.15 K, 101 kPa, x1 = 0.07103): 0.84 ± 0.25 mPa·s
- viscosity (323.15 K, 101 kPa, x1 = 0.0744): 0.8536 ± 0.022 mPa·s
- viscosity (323.15 K, 101 kPa, x1 = 0.0958): 0.9537 ± 0.025 mPa·s
- viscosity (323.15 K, 101 kPa, x1 = 0.09929): 0.96 ± 0.29 mPa·s
- viscosity (323.15 K, 101 kPa, x1 = 0.1435): 1.165 ± 0.03 mPa·s
- viscosity (323.15 K, 101 kPa, x1 = 0.1586): 1.221 ± 0.032 mPa·s
- viscosity (323.15 K, 101 kPa, x1 = 0.1924): 1.379 ± 0.036 mPa·s
- viscosity (323.15 K, 101 kPa, x1 = 0.29): 1.814 ± 0.047 mPa·s
- viscosity (323.15 K, 101 kPa, x1 = 0.3022): 1.85 ± 0.048 mPa·s
- viscosity (323.15 K, 101 kPa, x1 = 0.4496): 2.486 ± 0.065 mPa·s
- viscosity (323.15 K, 101 kPa, x1 = 0.6077): 3.184 ± 0.083 mPa·s
- viscosity (323.15 K, 101 kPa, x1 = 0.6106): 3.217 ± 0.084 mPa·s
- viscosity (323.15 K, 101 kPa, x1 = 0.749): 3.896 ± 0.1 mPa·s
- viscosity (323.15 K, 101 kPa, x1 = 0.7813): 4.197 ± 0.11 mPa·s
